Measurements taken from ChEMBL document CHEMBL1146237, “Antineoplastic agents. 561. Total synthesis of respirantin” (2007).
Values after ≈ are worked out from the molar mass of the structure shown.

Experiments:
P388 = experiment: Growth inhibition of mouse P388 cells; assay type: functional
MCF7 = experiment: Growth inhibition of human MCF7 cells; assay type: functional

GI50 (MCF7) [µg/mL]	SMILES	GI50 (P388) [µg/mL]
	CCC(C)[C@@H]1OC(=O)[C@H](C)OC(=O)[C@@H](NC(=O)c2cccc(NC=O)c2O)[C@@H](C)OC(=O)[C@H](CC(C)C)OC(=O)C(C)(C)C(=O)[C@H](CC(C)C)NC1=O (some centres undefined) [RESPIRANTIN]	0.0037 (≈ 0.00495 µM)
0.00062 (≈ 0.000845 µM)	CCC(C)[C@@H]1OC(=O)[C@H](C)OC(=O)[C@@H](NC(=O)c2cccc(NC=O)c2O)[C@@H](C)OC(=O)[C@H](C(C)C)OC(=O)C(C)(C)C(=O)[C@H](CC(C)C)NC1=O (some centres undefined)	0.033 (≈ 0.045 µM)
	CCC(C)[C@@H]1OC(=O)[C@H](C)OC(=O)[C@@H](NC(=O)c2cccc(N)c2O)[C@@H](C)OC(=O)[C@H](CC(C)C)OC(=O)C(C)(C)C(=O)[C@H](CC(C)C)NC1=O (some centres undefined) [KITASTATIN]	0.045 (≈ 0.0625 µM)
